This note sets out measurements from PubChem BioAssay (NCI).

Each structure is given as a SMILES string.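 Interpolation was linear, between the two tested concentrations surrounding the appropriate level; five concentrations were tested over 48 hours in 96-well plates. TGI: concentration producing complete growth inhibition.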

Among the test systems are NCI-H23 lung; UACC-257 melanoma; HCT-116 colon; RPMI-8226 leukemia; U251 CNS; HL-60(TB) leukemia; DU-145 prostate; SNB-75 CNS; NCI/ADR-RES ovarian; HT29 colon.
Holding throughout (assay): growth of human tumour cells (NCI), 48 h

With `C=CCN(c1cc(OC)c2[nH]cc(C)c2c1[N+](=O)[O-])S(C)(=O)=O`, the TGI in the experiment on NCI-H23 lung, in the experiment with UACC-257 melanoma, with HCT-116 colon, in the experiment with RPMI-8226 leukemia, in the experiment with U251 CNS and in the experiment on HL-60(TB) leukemia was more than 100 µM each time. Also, the TGI in the experiment on DU-145 prostate, with SNB-75 CNS and in the experiment on NCI/ADR-RES ovarian was more than 100 µM each time.

In the case of `CCOC(=O)Cn1c(=O)c2cc(-c3ccccc3)cc3c(Cl)nc4c(OC)c(OC)cc1c4c32`, the TGI in the experiment with NCI-H23 lung is 36.2 µM; in the experiment on UACC-257 melanoma it was 38.9 µM; in the experiment on HCT-116 colon it was 29.1 µM; in the experiment with RPMI-8226 leukemia, 46.8 µM; in the experiment with U251 CNS it was more than 100 µM; with HL-60(TB) leukemia, 27.4 µM. In addition, the TGI with DU-145 prostate was more than 61 µM; in the experiment with SNB-75 CNS it was 49.6 µM; in the experiment on NCI/ADR-RES ovarian, 56.5 µM; in the experiment on HT29 colon it was 48.1 µM.

For `Oc1cccc(-c2cn3cc(C(F)(F)F)ccc3n2)c1`, the TGI is more than 100 µM in the experiment on NCI-H23 lung; 65.3 µM in the experiment on UACC-257 melanoma; more than 100 µM with HCT-116 colon; more than 100 µM in the experiment on U251 CNS; more than 100 µM with HL-60(TB) leukemia; 72.5 µM with DU-145 prostate. For the same compound, the TGI in the experiment on NCI/ADR-RES ovarian amounted to 78.1 µM; with HT29 colon, 60.8 µM.

As for `CC(=O)NC(Cc1ccc(OP(=O)(OCc2ccc([N+](=O)[O-])o2)N(C)CCCCCl)cc1)C(=O)NC(C)c1ccc(OCC2CCCCC2)c(C(N)=O)c1` (centres undefined), the TGI turned out to be 6.3 µM in the experiment on NCI-H23 lung; 3.78 µM with UACC-257 melanoma; 5.3 µM with HCT-116 colon; 3.96 µM in the experiment on RPMI-8226 leukemia; 6.49 µM with U251 CNS; 6.83 µM in the experiment on HL-60(TB) leukemia. Moreover, the figures for the TGI in the experiment on DU-145 prostate, in the experiment with NCI/ADR-RES ovarian and in the experiment on HT29 colon were 15.2 µM, more than 100 µM and 4.83 µM, respectively.

As to `CSCCC(NC(=O)OCc1ccccc1)NC(=O)OCc1ccccc1`, the TGI in the experiment on NCI-H23 lung, in the experiment on UACC-257 melanoma, in the experiment with HCT-116 colon, in the experiment on RPMI-8226 leukemia, in the experiment with U251 CNS and with DU-145 prostate was more than 100 µM in each case. Also, the TGI in the experiment on SNB-75 CNS, in the experiment with NCI/ADR-RES ovarian and in the experiment with HT29 colon was more than 100 µM each time.

With `CC(NC(C#N)CC12CC3CC(CC(C3)C1)C2)c1ccccc1` (centres undefined), the TGI in the experiment on UACC-257 melanoma is more than 100 µM; with HCT-116 colon it was more than 100 µM; in the experiment with RPMI-8226 leukemia it was 44 µM; with U251 CNS, more than 100 µM; with HL-60(TB) leukemia it was 42.3 µM; with DU-145 prostate, more than 100 µM. The TGI in the experiment on NCI/ADR-RES ovarian and in the experiment with HT29 colon was more than 100 µM throughout.

For `N#Cc1ccc(Oc2nc3ccc(C(F)(F)F)cc3nc2-c2ccccc2)cc1`, the TGI with NCI-H23 lung was 32 µM; in the experiment on UACC-257 melanoma, 54.7 µM; in the experiment on HCT-116 colon, 28.6 µM; in the experiment on U251 CNS, 30.9 µM; in the experiment with HL-60(TB) leukemia it was 46.3 µM; in the experiment with DU-145 prostate it was 34 µM. Besides, the TGI is 32.1 µM with SNB-75 CNS, 37.1 µM in the experiment with NCI/ADR-RES ovarian and 34.5 µM with HT29 colon.

For `CC[C@@]12C=CC(=S)N(CCSc3ccccc3)[C@@H]1c1c(n(S(=O)(=O)c3ccc(OC)cc3)c3ccccc13)CC2`, the TGI with NCI-H23 lung, in the experiment with UACC-257 melanoma, in the experiment with HCT-116 colon, in the experiment with U251 CNS, in the experiment on HL-60(TB) leukemia and in the experiment with DU-145 prostate was more than 100 µM throughout. The TGI with SNB-75 CNS, in the experiment with NCI/ADR-RES ovarian and with HT29 colon was more than 100 µM each time.

With `c1ccc(N=C2SC3=NCCN3C2=Nc2ccccc2)cc1`, the TGI was determined as 52.9 µM in the experiment on NCI-H23 lung; 26.8 µM with HCT-116 colon; 83.8 µM in the experiment with RPMI-8226 leukemia; 33.5 µM in the experiment with U251 CNS; 28.8 µM in the experiment on DU-145 prostate; 43.3 µM in the experiment on SNB-75 CNS. Moreover, the values for the TGI in the experiment with NCI/ADR-RES ovarian and in the experiment with HT29 colon were more than 100 µM and 41.3 µM, respectively.

As for `CCSc1nc(N)c2c(-c3ccccc3)c3c(nc2n1)CCC3`, the TGI with NCI-H23 lung, with UACC-257 melanoma, with HCT-116 colon, with RPMI-8226 leukemia, with U251 CNS and in the experiment on HL-60(TB) leukemia was more than 100 µM in each case. The TGI in the experiment on DU-145 prostate, with SNB-75 CNS and with NCI/ADR-RES ovarian was more than 100 µM throughout.

For the compound `CC(C)OC(=O)[C@@H](O)[C@H](CO)C1=CC([Si](C)(C)c2ccccc2)=CON1`, the TGI in the experiment with NCI-H23 lung, in the experiment with UACC-257 melanoma, in the experiment with HCT-116 colon, in the experiment with RPMI-8226 leukemia, in the experiment on U251 CNS and in the experiment on DU-145 prostate was more than 100 µM in each case. The TGI with SNB-75 CNS was 69.2 µM; in the experiment with NCI/ADR-RES ovarian, more than 100 µM; in the experiment with HT29 colon, more than 100 µM.

With `CC(=O)/C=C(\O)c1[nH]c(C(=O)O)cc1C1CCN(Cc2ccccc2)C1=O` (centres undefined), the TGI is 35.3 µM with NCI-H23 lung; 53.7 µM in the experiment on UACC-257 melanoma; 61.7 µM in the experiment with HCT-116 colon; 49 µM in the experiment with RPMI-8226 leukemia; more than 100 µM in the experiment on U251 CNS; 59.2 µM in the experiment with DU-145 prostate. The TGI was found to be 63.1 µM with SNB-75 CNS, 28.9 µM with NCI/ADR-RES ovarian and 89 µM with HT29 colon.

With `O=C1c2ccccc2-c2nc(/C=C/c3ccccc3)cc3c2c1nc1ccccc13`, the TGI with NCI-H23 lung is 28.9 µM; with UACC-257 melanoma it was more than 100 µM; with HCT-116 colon, more than 100 µM; in the experiment with RPMI-8226 leukemia, more than 100 µM; in the experiment on U251 CNS, 57 µM; with DU-145 prostate, more than 100 µM. Further, the TGI is 47.7 µM in the experiment with SNB-75 CNS, more than 100 µM in the experiment on NCI/ADR-RES ovarian and 92 µM with HT29 colon.

Regarding `C=CCCCCCCCCCOC1C=CC(OC(C)=O)C(COC(C)=O)O1` (centres undefined), the TGI in the experiment with NCI-H23 lung was more than 100 µM; in the experiment on UACC-257 melanoma, 95.8 µM; in the experiment on HCT-116 colon, more than 100 µM; with RPMI-8226 leukemia, 84.6 µM; in the experiment on U251 CNS, more than 100 µM; in the experiment on HL-60(TB) leukemia, more than 100 µM. Besides, the TGI with DU-145 prostate was more than 100 µM; in the experiment with NCI/ADR-RES ovarian, more than 100 µM; with HT29 colon it was 48.1 µM.
